Assay results: publication PMC9617638 (Journal of medicinal chemistry, 2019)
pKi: −log10 of the molar value. Where “and” joins values, the source holds several entries; their conditions need not be identical. Equal values may be shown once. Entries after “also recorded” stand apart in the source; their conditions may differ.

How the values were obtained:
[1] = Off-target binding interactions; conditions: concentration of 100 nM
σ1 receptor = σ1 receptor (Cavia porcellus, UniProt Q60492); assay: σ1 receptor binding assay, [3H]; design: species or system guinea pig; conditions: for selectivity for σ1R over DAT and SERT (in words): σ1R versus monoamine transporters
σ1 receptor, sequence (Q60492 whole entry): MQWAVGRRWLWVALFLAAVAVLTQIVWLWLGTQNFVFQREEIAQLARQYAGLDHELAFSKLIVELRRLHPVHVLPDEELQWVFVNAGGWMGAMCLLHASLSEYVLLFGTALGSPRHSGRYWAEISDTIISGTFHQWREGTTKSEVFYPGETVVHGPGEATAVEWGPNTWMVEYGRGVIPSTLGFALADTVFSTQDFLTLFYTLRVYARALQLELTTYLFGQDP

DAT = DAT (Rattus norvegicus, UniProt P23977); assay: DAT binding assay, [3H]WIN 35,428, rat striatum membranes; conditions: for DAT Ki values (in words): terminal piperazine amine changed to amide
DAT, sequence (P23977 whole entry): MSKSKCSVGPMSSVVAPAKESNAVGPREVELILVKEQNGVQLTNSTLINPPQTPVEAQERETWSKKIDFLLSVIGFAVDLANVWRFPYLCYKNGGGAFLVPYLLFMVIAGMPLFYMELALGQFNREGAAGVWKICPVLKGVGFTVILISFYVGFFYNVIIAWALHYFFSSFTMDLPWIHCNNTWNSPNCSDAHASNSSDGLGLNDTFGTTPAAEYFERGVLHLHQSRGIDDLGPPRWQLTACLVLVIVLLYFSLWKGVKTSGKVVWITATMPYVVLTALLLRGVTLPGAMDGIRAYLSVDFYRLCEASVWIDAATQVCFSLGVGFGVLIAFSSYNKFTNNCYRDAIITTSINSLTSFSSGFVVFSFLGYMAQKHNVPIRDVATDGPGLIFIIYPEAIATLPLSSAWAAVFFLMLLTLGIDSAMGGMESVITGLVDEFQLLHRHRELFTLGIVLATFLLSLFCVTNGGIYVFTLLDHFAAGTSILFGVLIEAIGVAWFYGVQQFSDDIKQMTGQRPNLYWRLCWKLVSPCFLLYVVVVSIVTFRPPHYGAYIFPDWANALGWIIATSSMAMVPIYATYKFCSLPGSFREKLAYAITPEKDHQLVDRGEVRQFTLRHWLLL

SERT = SERT (Rattus norvegicus, UniProt P31652); assay: SERT binding assay, [3H]citalopram, rat brain stem membranes; conditions: DAT versus SERT Ki
SERT, sequence (P31652 whole entry): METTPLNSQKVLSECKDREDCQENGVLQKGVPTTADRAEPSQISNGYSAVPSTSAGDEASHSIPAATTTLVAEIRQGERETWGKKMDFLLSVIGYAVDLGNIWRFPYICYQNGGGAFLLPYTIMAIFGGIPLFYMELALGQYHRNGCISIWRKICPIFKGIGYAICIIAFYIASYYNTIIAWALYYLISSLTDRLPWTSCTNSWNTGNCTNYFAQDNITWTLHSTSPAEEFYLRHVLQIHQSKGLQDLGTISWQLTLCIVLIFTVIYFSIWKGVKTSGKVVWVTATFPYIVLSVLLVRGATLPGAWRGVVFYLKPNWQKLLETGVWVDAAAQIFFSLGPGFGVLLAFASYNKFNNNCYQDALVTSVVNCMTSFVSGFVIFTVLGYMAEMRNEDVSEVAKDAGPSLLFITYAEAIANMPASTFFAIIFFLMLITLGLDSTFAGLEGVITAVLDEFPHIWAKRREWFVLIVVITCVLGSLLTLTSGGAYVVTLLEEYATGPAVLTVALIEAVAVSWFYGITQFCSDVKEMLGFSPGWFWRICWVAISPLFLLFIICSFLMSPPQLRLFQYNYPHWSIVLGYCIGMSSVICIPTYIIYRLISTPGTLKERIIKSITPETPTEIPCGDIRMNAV

[2] = Phase I metabolic stability in mouse liver microsomes; assay type: in vitro ADME; conditions: for phase I metabolic stability (in words): mouse liver microsomes, 60 min; for compound remaining: mouse microsomes fortified with NADPH, 60 min (1 h)
hERG = hERG (Homo sapiens, UniProt Q12809); assay: hERG current block; assay type: cell-based; conditions: hERG IC50 over DAT Ki
hERG, sequence (Q12809 whole entry): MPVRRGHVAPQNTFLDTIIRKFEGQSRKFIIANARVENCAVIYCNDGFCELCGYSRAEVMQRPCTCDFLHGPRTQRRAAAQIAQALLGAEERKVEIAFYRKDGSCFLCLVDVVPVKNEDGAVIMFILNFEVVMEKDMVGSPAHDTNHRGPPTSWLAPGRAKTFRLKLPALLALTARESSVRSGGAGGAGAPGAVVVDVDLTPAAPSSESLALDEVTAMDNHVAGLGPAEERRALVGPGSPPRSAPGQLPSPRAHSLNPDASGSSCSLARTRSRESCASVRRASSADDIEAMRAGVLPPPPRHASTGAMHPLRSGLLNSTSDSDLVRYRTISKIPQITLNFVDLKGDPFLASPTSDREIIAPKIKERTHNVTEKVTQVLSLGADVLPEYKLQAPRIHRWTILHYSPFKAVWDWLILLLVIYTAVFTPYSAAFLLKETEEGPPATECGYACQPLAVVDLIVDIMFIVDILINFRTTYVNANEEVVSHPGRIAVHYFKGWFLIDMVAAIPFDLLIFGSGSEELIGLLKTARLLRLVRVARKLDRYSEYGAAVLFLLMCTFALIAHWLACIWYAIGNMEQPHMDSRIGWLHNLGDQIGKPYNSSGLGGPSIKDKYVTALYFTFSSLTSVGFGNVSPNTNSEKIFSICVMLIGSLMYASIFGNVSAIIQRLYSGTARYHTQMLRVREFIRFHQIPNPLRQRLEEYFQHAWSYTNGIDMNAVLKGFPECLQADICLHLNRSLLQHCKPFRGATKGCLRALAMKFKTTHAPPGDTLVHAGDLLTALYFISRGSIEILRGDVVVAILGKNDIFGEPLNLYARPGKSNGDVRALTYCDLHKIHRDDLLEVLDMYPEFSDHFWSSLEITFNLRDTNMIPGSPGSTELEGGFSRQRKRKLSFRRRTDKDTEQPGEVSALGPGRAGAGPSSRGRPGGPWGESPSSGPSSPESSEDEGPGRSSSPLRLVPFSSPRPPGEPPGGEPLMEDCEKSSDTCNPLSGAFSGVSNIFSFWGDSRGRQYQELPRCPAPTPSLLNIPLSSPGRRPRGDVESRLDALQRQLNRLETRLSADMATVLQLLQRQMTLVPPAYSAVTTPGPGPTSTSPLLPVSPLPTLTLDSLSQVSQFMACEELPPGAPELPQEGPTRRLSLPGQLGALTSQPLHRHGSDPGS

mouse locomotion = assay: Locomotor activity in mice; assay type: in vivo; conditions: i.p., 2 h session, cocaine 3-30 mg/kg, 14a 1-30 mg/kg, 14b/14c 1-10 mg/kg
DAT Y156F mutant = DAT Y156F mutant (Homo sapiens, UniProt Q01959, Y156F); assay type: binding; conditions: read-out: Y156F Ki, COS7 cells, mean [SE interval]
DAT Y156F mutant, sequence (Q01959 whole entry Y156F): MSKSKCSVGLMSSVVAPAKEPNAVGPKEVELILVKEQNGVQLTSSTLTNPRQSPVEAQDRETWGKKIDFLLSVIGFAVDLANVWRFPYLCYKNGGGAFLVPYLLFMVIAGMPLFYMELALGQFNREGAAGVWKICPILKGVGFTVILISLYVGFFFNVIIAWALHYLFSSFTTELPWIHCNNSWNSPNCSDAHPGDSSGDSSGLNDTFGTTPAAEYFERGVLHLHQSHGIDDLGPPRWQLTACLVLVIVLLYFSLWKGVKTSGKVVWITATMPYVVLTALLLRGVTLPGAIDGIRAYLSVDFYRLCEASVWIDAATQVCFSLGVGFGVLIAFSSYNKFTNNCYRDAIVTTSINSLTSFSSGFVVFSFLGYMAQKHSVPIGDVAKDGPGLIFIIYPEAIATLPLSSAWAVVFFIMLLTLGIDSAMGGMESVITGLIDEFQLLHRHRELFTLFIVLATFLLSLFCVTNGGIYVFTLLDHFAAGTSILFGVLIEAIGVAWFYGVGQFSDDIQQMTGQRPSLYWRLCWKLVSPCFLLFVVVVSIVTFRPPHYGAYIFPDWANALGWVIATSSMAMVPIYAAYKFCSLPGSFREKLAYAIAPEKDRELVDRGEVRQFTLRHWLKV

[3] = Metabolic stability in human liver microsomes; assay type: in vitro ADME

With `CC(O)CN1CCN(CC[S+]([O-])C(c2ccc(F)cc2)c2ccc(F)cc2)CC1` (stereo not shown) [3b, 1-(4-(2-((bis(4-fluorophenyl)methyl)sulfinyl)ethyl)-piperazin-1-yl)-propan-2-ol, reference compound] the off-target interactions [1] was “no significant interactions”.

For “1-(4-(2-((Bis(4-fluorophenyl)methyl)thio)ethyl)piperazin-1-yl)-2-phenylethan-1-one [8f]”, the “selectivity for σ1R over DAT and SERT (in words)” value (“selectivity for σ1R” below) (σ1 receptor) was “σ1R selective”, the “DAT Ki values (in words)” value (DAT) was “low micromolar range” and the “selectivity for DAT over SERT (in words)” value (SERT) was “equivalent”.

In the case of `C[C@@H]1CN(CC[S+]([O-])C(c2ccc(F)cc2)c2ccc(F)cc2)C[C@H](C)N1CC(O)Cc1ccccc1` (stereo partly drawn) [15b, 1-(4-(2-((Bis(4-fluorophenyl)methyl)sulfinyl)ethyl)-2,6-cis-dimethylpiperazin-1-yl)-3-phenylpropan-2-ol], the “phase I metabolic stability (in words)” value [2] was “almost no compound present after 60 min” and the off-target interactions [1] was “no significant interactions”.

With `C[C@H](O)CN1CCN(CC[S+]([O-])C(c2ccc(F)cc2)c2ccc(F)cc2)CC1` (stereo partly drawn) [12a, (S)-1-(4-(2-((Bis(4-fluorophenyl)methyl)sulfinyl)ethyl)piperazin-1-yl)propan-2-ol] the “phase I metabolic stability (in words)” value [2] was “exceptional and similar metabolic stability”.

With `[O-][S+](CCCN1CCN(CCCc2ccccc2)CC1)C(c1ccc(F)cc1)c1ccc(F)cc1` (stereo not shown) [12c, 1-(3-((Bis(4-fluorophenyl)methyl)sulfinyl)propyl)-4-(3-phenylpropyl)piperazine] the “phase I metabolic stability (in words)” value [2] was “almost no compound present after 60 min”.

For `CC(=O)CN1CCN(CCSC(c2ccc(F)cc2)c2ccc(F)cc2)CC1` [8g, 1-(4-(2-((Bis(4-fluorophenyl)methyl)thio)ethyl)piperazin-1-yl)propan-2-one], the “selectivity for σ1R” value (σ1 receptor) was “σ1R selective” and the “decrease of DAT affinity compared to 3a” value (DAT; 2-propanol oxidised to 2-propanone) was ~ 5 fold.

`CC(O)CN1CCN(CCSC(c2ccc(F)cc2)c2ccc(F)cc2)CC1` (stereo not shown) [3a, reference compound] gave a hERG/DAT affinity ratio (hERG) of 3.

In the case of `O[C@@H](Cc1ccccc1)CN1CCN(CCSC(c2ccc(F)cc2)c2ccc(F)cc2)CC1` [8d, (S)-1-(4-(2-((Bis(4-fluorophenyl)methyl)thio)ethyl)piperazin-1-yl)-3-phenylpropan-2-ol], the “phase I metabolic stability (in words)” value [2] was “almost no compound present after 60 min”.

For `OC(CN1CCC2(CCN(CCSC(c3ccc(F)cc3)c3ccc(F)cc3)CC2)C1)c1ccccc1` (stereo not shown) [18b, 2-(8-(2-((Bis(4-fluorophenyl)methyl)thio)ethyl)-2,8-diazaspiro[4.5]decan-2-yl)-1-phenylethan-1-ol], the “selectivity for σ1R” value (σ1 receptor) was “binding preference for σ1R”, the compound remaining [2] was 30–44% and 44% and the “selectivity for DAT over SERT (in words)” value (SERT) was “not selective for DAT over SERT; also recorded: equivalent”.

For `CC(O)CN1[C@H](C)CN(CC[S+]([O-])C(c2ccc(F)cc2)c2ccc(F)cc2)C[C@@H]1C` (stereo partly drawn) [15a, 1-(4-(2-((Bis(4-fluorophenyl)methyl)sulfinyl)ethyl)-2,6-cis-dimethylpiperazin-1-yl)propan-2-ol], the compound remaining [2] was 30–44%, the off-target interactions [1] was “no significant interactions” and the hERG/DAT affinity ratio (hERG) was 30.

For `CC(O)CN1[C@H](C)CN(CCSC(c2ccc(F)cc2)c2ccc(F)cc2)C[C@@H]1C` (stereo partly drawn) [14a, 1-(4-(2-((Bis(4-fluorophenyl)methyl)thio)ethyl)-2,6-cis-dimethylpiperazin-1-yl)propan-2-ol], the “locomotor (ambulatory) activity, maximum distance traveled in 30 min” value (mouse locomotion) was “not significantly different than vehicle; also recorded: only moderate locomotor stimulation”, the “higher binding affinity at σ1 receptors than at DAT” value (σ1 receptor; σ1 versus DAT) was ~ 4 fold and the pKi (DAT Y156F mutant) was 6.57. The off-target interactions [1] was “no significant interactions” and the “metabolic stability (in words)” value [3] was “moderate metabolic stability”.

In the case of `OC(Cc1ccc(F)cc1)CN1CCN(CCSC(c2ccc(F)cc2)c2ccc(F)cc2)CC1` (stereo not shown) [8a, 1-(4-(2-((Bis(4-fluorophenyl)methyl)thio)ethyl)piperazin-1-yl)-3-(4-fluorophenyl)propan-2-ol], the “phase I metabolic stability (in words)” value [2] was “almost no compound present after 60 min”.

For `CCC(=O)N1CCN(CCSC(c2ccc(F)cc2)c2ccc(F)cc2)CC1` [11d, 1-(4-(2-((Bis(4-fluorophenyl)methyl)thio)ethyl)piperazin-1-yl)propan-1-one], the “selectivity for σ1R” value (σ1 receptor) was “σ1R selective”, the “DAT Ki values (in words)” value (DAT) was “low micromolar range” and the “selectivity for DAT over SERT (in words)” value (SERT) was “equivalent”.

In the case of `CC(O)CN1CCC2(CCN(CC[S+]([O-])C(c3ccc(F)cc3)c3ccc(F)cc3)CC2)C1` (stereo not shown) [compound 19, 1-(8-(2-((Bis(4-fluorophenyl)methyl)sulfinyl)ethyl)-2,8-diazaspiro[4.5]decan-2-yl)propan-2-ol], the “selectivity for σ1R” value (σ1 receptor) was “binding preference for σ1R” and the “selectivity for DAT over SERT (in words)” value (SERT) was “not selective for DAT over SERT; also recorded: equivalent”.

For `C[C@@H](O)CN1CCN(CC[S+]([O-])C(c2ccc(F)cc2)c2ccc(F)cc2)CC1` (stereo partly drawn) [12b, (R)-1-(4-(2-((Bis(4-fluorophenyl)methyl)sulfinyl)ethyl)piperazin-1-yl)propan-2-ol], the “phase I metabolic stability (in words)” value [2] was “exceptional and similar metabolic stability”.

In the case of `O[C@H](Cc1ccccc1)CN1CCN(CCSC(c2ccc(F)cc2)c2ccc(F)cc2)CC1` [8e, (R)-1-(4-(2-((Bis(4-fluorophenyl)methyl)thio)ethyl)piperazin-1-yl)-3-phenylpropan-2-ol], the “phase I metabolic stability (in words)” value [2] was “almost no compound present after 60 min”.
